Experimental data: US7745483B2, “2-Halofuryl-thienyl-3-carboxamides” (Bayer CropScience AG, priority 2004, dated 2010)

Tested on: Botrytis cinerea
Test: Botrytis test (bean)/protective
Type: in vivo
Details: 48 h, protective, application rate 500 g/ha, evaluation 2 days after inoculation, read-out: Efficacy in %
Experimental: [table] To produce a suitable preparation of active compound, 1 part by weight of active compound was mixed with the stated amounts of solvent and emulsifier, and the concentrate was diluted with water to the desired concentration. To test for protective activity, young plants are sprayed with the preparation of active compound at the stated application rate. After the spray coating has dried on, 2 small pieces of agar colonized by Botrytis cinerea are placed onto each leaf. The inoculated plants are placed in a dark chamber at about 20° C. and 100% relative atmospheric humidity. The size of the infected areas on the leaves is evaluated 2 days after the inoculation. 0% means an efficacy which corresponds to that of the control, whereas an efficacy of 100% means that no infection is observed.
With `CC(C)CC(C)c1ccccc1NC(=O)c1ccsc1I` (stereo not shown) [drawing 222] the pest or weed control at 500 g/ha was 100%. With `CC(C)CC(C)c1ccccc1NC(=O)c1ccoc1I` (stereo not shown) [drawing 223] the pest or weed control at 500 g/ha was 99%. `CC(CC(C)(C)C)c1ccccc1NC(=O)c1ccoc1I` (stereo not shown) [drawing 224] showed a pest or weed control at 500 g/ha of 100%. Work on `CC(CC(C)(C)C)c1ccccc1NC(=O)c1ccsc1I` (stereo not shown) [drawing 225] yielded a pest or weed control at 500 g/ha of 100%. For `C[Si](C)(C)CCc1ccccc1NC(=O)c1ccsc1I` [drawing 226], the pest or weed control at 500 g/ha was 100%. With `O=C(Nc1ccccc1-c1ccc(C(F)(F)F)cc1Cl)c1ccsc1I` [drawing 227] the pest or weed control at 500 g/ha was 100%. For `O=C(Nc1ccncc1-c1ccc(Cl)c(Cl)c1)c1ccsc1I` [drawing 228], the pest or weed control at 500 g/ha was 100%. Work on `O=C(Nc1ccccc1-c1ccc(Br)cc1Cl)c1ccsc1I` [drawing 229] yielded a pest or weed control at 500 g/ha of 100%. For `O=C(Nc1ccccc1-c1ccc(Br)c(F)c1)c1ccsc1I` [drawing 230], the pest or weed control at 500 g/ha was 100%. Molecule `O=C(Nc1ccccc1-c1ccc(Br)c(Cl)c1)c1ccsc1I` [drawing 231] has a pest or weed control at 500 g/ha of 100%. Molecule `O=C(Nc1ccccc1-c1cccc(Cl)c1Cl)c1ccsc1I` [drawing 232] has a pest or weed control at 500 g/ha of 100%. Work on `O=C(Nc1ccccc1-c1cccc(Cl)c1F)c1ccsc1I` [drawing 233] yielded a pest or weed control at 500 g/ha of 100%. `O=C(Nc1ccc(F)cc1-c1cccc(Cl)c1F)c1ccsc1I` [drawing 234] showed a pest or weed control at 500 g/ha of 100%. Molecule `CC(C)(C)CCc1cc(F)ccc1NC(=O)c1ccsc1I` [drawing 235] has a pest or weed control at 500 g/ha of 100%. `O=C(Nc1ccccc1-c1ccc(Cl)cc1)c1ccoc1I` [drawing 236] showed a pest or weed control at 500 g/ha of 100%. With `O=C(Nc1ccccc1-c1ccc(Br)cc1)c1ccoc1I` [drawing 237] the pest or weed control at 500 g/ha was 100%. Molecule `O=C(Nc1ccccc1-c1ccc(Cl)c(Cl)c1)c1ccoc1I` [drawing 238] has a pest or weed control at 500 g/ha of 100%. For `O=C(Nc1ccccc1-c1ccc(Cl)c(F)c1)c1ccoc1I` [drawing 239], the pest or weed control at 500 g/ha was 100%. `O=C(Nc1ccccc1-c1ccc(Cl)cc1)c1ccsc1I` [drawing 240] gave a pest or weed control at 500 g/ha of 100%. `O=C(Nc1ccccc1-c1ccc(Br)cc1)c1ccsc1I` [drawing 241] gave a pest or weed control at 500 g/ha of 100%. Molecule `O=C(Nc1ccccc1-c1ccc(Cl)c(Cl)c1)c1ccsc1I` [drawing 242] has a pest or weed control at 500 g/ha of 100%. Molecule `O=C(Nc1ccccc1-c1ccc(Cl)c(F)c1)c1ccsc1I` [drawing 243] has a pest or weed control at 500 g/ha of 100%. For `CC(C[Si](C)(C)C)c1ccccc1NC(=O)c1ccoc1I` (stereo not shown) [drawing 244], the pest or weed control at 500 g/ha was 100%. `CC(C[Si](C)(C)C)c1ccccc1NC(=O)c1ccsc1I` (stereo not shown) [drawing 245] gave a pest or weed control at 500 g/ha of 100%. With `O=C(Nc1ccccc1-c1ccc(C(F)(F)F)cc1)c1ccsc1I` [drawing 246] the pest or weed control at 500 g/ha was 100%. In the case of `O=C(Nc1ccc(F)cc1-c1ccc(Cl)c(Cl)c1)c1ccsc1I` [drawing 247], the pest or weed control at 500 g/ha is reported as 100%. `Cc1ccc(-c2ccccc2NC(=O)c2ccsc2I)cc1F` [drawing 248] gave a pest or weed control at 500 g/ha of 100%. With `CC1CC(C)(C)c2cccc(NC(=O)c3ccsc3I)c21` (stereo not shown) [drawing 249] the pest or weed control at 500 g/ha was 100%. Molecule `CC(C)CC(C)c1cc(F)ccc1NC(=O)c1ccsc1I` (stereo not shown) [drawing 250] has a pest or weed control at 500 g/ha of 100%. In the case of `CO/N=C/c1ccc(-c2ccccc2NC(=O)c2ccsc2I)cc1F` [drawing 251], the pest or weed control at 500 g/ha is reported as 100%. With `CC(C)CC(C)c1sccc1NC(=O)c1ccsc1I` (stereo not shown) [drawing 252] the pest or weed control at 500 g/ha was 100%. Molecule `CC(C)CC(C)c1ccccc1NC(=O)c1ccsc1Br` (stereo not shown) [drawing 253] has a pest or weed control at 500 g/ha of 100%. With `CC(CC(C)(C)C)c1ccccc1NC(=O)c1ccsc1Br` (stereo not shown) [drawing 254] the pest or weed control at 500 g/ha was 100%. For `O=C(Nc1ccccc1-c1ccc(Cl)cc1)c1ccsc1Br` [drawing 255], the pest or weed control at 500 g/ha was 100%. `O=C(Nc1ccccc1-c1ccc(Cl)c(Cl)c1)c1ccsc1Br` [drawing 256] showed a pest or weed control at 500 g/ha of 100%. Molecule `O=C(Nc1ccccc1-c1ccc(Cl)c(F)c1)c1ccsc1Br` [drawing 257] has a pest or weed control at 500 g/ha of 100%. `O=C(Nc1ccccc1-c1ccc(F)c(Cl)c1)c1ccsc1I` [drawing 258] gave a pest or weed control at 500 g/ha of 99%. Work on `C[Si](C)(C)CCc1sccc1NC(=O)c1ccsc1I` [drawing 259] yielded a pest or weed control at 500 g/ha of 100%.

Tested on: not listed separately
Test: logP determination by HPLC on a reverse-phase column (EEC Directive 79/831 Annex V.A8)
Type: physicochemical
Details: pH 2.3, reverse-phase column (C 18), 43° C.
Experimental: The logP values given were determined in accordance with EEC Directive 79/831 Annex V.A8 by HPLC (High Performance Liquid Chromatography) on a reverse-phase column (C 18). Temperature: 43° C. Mobile phases for the determination in the acidic range (pH 2.3): 0.1% aqueous phosphoric acid, acetonitrile; linear gradient from 10% acetonitrile to 90% acetonitrile. Calibration was carried out using unbranched alkan-2-ones (having 3 to 16 carbon atoms) with known logP values (determination of logP values by retention times using linear interpolation between two successive alkanones).
Molecule `O=C(Nc1ccccc1-c1ccc(Br)cc1)c1ccoc1I` [Example 3] has a logP of 3.72. Work on `O=C(Nc1ccccc1-c1ccc(Br)c(F)c1)c1ccoc1I` [Example 4] yielded a logP of 3.58. In the case of `C=C(CC(C)C)c1ccccc1NC(=O)c1ccsc1I` [Example 5], the logP is reported as 4.57. Molecule `CC(CC(C)(C)C)c1ccccc1NC(=O)c1ccsc1I` (stereo not shown) [Example 6] has a logP of 4.42. In the case of `CC(CC(C)(C)C)c1ccccc1NC(=O)c1ccoc1I` (stereo not shown) [Example 7], the logP is reported as 4.16. Work on `O=C(Nc1ccccc1-c1ccc(Cl)cc1)c1ccsc1I` [Example 8] yielded a logP of 3.93. In the case of `O=C(Nc1ccccc1-c1ccc(Cl)c(F)c1)c1ccsc1I` [Example 9], the logP is reported as 3.82. Molecule `O=C(Nc1ccccc1-c1ccc(Cl)c(Cl)c1)c1ccoc1I` [Example 10] has a logP of 3.89. For `O=C(Nc1ccccc1-c1ccc(Cl)cc1)c1ccoc1I` [Example 11], the logP was 3.62. For `O=C(Nc1ccccc1-c1ccc(Cl)c(Cl)c1)c1ccsc1I` [Example 13], the logP was 4.11. Molecule `C=C(CC(C)(C)C)c1ccccc1NC(=O)c1ccsc1I` [Example 14] has a logP of 4.78. For `C=C(CC(C)(C)C)c1ccccc1NC(=O)c1ccoc1I` [Example 15], the logP was 4.49. With `CC(C[Si](C)(C)C)c1ccccc1NC(=O)c1ccoc1I` (stereo not shown) [Example 16] the logP was 4.45. `CC(C[Si](C)(C)C)c1ccccc1NC(=O)c1ccsc1I` (stereo not shown) [Example 17] showed a logP of 4.69. In the case of `C[Si](C)(C)CCc1ccccc1NC(=O)c1ccsc1I` [Example 18], the logP is reported as 4.43. With `O=C(Nc1ccccc1-c1ccc(C(F)(F)F)cc1Cl)c1ccsc1I` [Example 19] the logP was 4.18. With `CC(C)(C)CCc1ccccc1NC(=O)c1ccsc1I` [Example 20] the logP was 4.17. `O=C(Nc1ccccc1-c1ccc(Br)cc1Cl)c1ccsc1I` [Example 21] gave a logP of 4.28. Work on `O=C(Nc1ccccc1-c1ccc(Br)c(F)c1)c1ccsc1I` [Example 22] yielded a logP of 3.89. For `O=C(Nc1ccccc1-c1cccc(Cl)c1Cl)c1ccsc1I` [Example 23], the logP was 4.01. `O=C(Nc1ccc(F)cc1-c1ccc(Cl)c(Cl)c1)c1ccsc1I` [Example 24] showed a logP of 4.13. `Cc1ccc(-c2ccccc2NC(=O)c2ccsc2I)cc1F` [Example 25] gave a logP of 3.89. `O=C(Nc1ccccc1-c1ccc(C(F)(F)F)cc1)c1ccsc1I` [Example 26] gave a logP of 3.89. Work on `CC(C)CC(C)c1ccccc1NC(=O)c1ccsc1Br` (stereo not shown) [Example 27] yielded a logP of 4.24. `CC(CC(C)(C)C)c1ccccc1NC(=O)c1ccsc1Br` (stereo not shown) [Example 28] gave a logP of 4.51. In the case of `O=C(Nc1ccccc1-c1ccc(Cl)cc1)c1ccsc1Br` [Example 29], the logP is reported as 3.99. Molecule `O=C(Nc1ccccc1-c1ccc(Cl)c(Cl)c1)c1ccsc1Br` [Example 30] has a logP of 4.25. For `O=C(Nc1ccccc1-c1ccc(Cl)c(F)c1)c1ccsc1Br` [Example 31], the logP was 3.91. `O=C(Nc1ccccc1-c1ccc(Br)c(Cl)c1)c1ccsc1I` [Example 32] gave a logP of 4.21. With `O=C(Nc1ccccc1-c1cccc(Cl)c1F)c1ccsc1I` [Example 33] the logP was 3.67. With `O=C(Nc1ccncc1-c1ccc(Cl)c(Cl)c1)c1ccsc1I` [Example 34] the logP was 2.20. For `O=C(Nc1ccc(F)cc1-c1cccc(Cl)c1F)c1ccsc1I` [Example 35], the logP was 3.69. Molecule `CC(C[Si](C)(C)C)c1cc(F)ccc1NC(=O)c1ccsc1I` (stereo not shown) [Example 36] has a logP of 4.67. `CC(C)(C)CCc1cc(F)ccc1NC(=O)c1ccsc1I` [Example 37] showed a logP of 4.16. With `O=C(Nc1ccccc1-c1ccc(F)c(Cl)c1)c1ccsc1I` [Example 38] the logP was 3.79. With `CC1CC(C)(C)c2cccc(NC(=O)c3ccsc3I)c21` (stereo not shown) [Example 39] the logP was 4.09. Work on `CON=Cc1ccc(-c2ccccc2NC(=O)c2ccsc2I)cc1F` [Example 40] yielded a logP of 3.79. For `CC(C)CC(C)c1cc(F)ccc1NC(=O)c1ccsc1I` (stereo not shown) [Example 41], the logP was 4.17. `CC(C)(C)CCc1sccc1NC(=O)c1ccsc1I` [Example 42] gave a logP of 4.44. `CC(C)CC(C)c1sccc1NC(=O)c1ccsc1I` (stereo not shown) [Example 43] showed a logP of 4.22. Molecule `CC(C)(C)CCc1cc(F)ccc1NC(=O)c1ccsc1Br` [Example 44] has a logP of 4.30. In the case of `CC(C)(C)CCc1ccccc1NC(=O)c1ccsc1Br` [Example 45], the logP is reported as 4.30.

Same assay, conditions: reverse-phase HPLC column (C 18), pH 2.3, reverse-phase column (C 18), 43° C.
For `CC(C)CC(C)c1ccccc1NC(=O)c1ccsc1I` (stereo not shown) [Example 1, N-[2-(1,3-dimethylbutyl)phenyl]-2-iodothiophene-3-carboxamide], the chromatographic logP was 4.14. `CC(C)CC(C)c1ccccc1NC(=O)c1ccoc1I` (stereo not shown) [Example 2, N-[2-(1,3-dimethylbutyl)phenyl]-2-iodo-3-furamide] gave a chromatographic logP of 3.88.
